Assay results published in ChEMBL document CHEMBL1201862, “PubChem BioAssay data set” (2004).
The source made the active and inactive calls.

Tests used:
[1] = target: Cytochrome P450 2D6 (Homo sapiens, UniProt P10635);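 also: CYP2D6 member of a cytochrome P450 panel assay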
[2] = target: Keap1/Nrf2 (Homo sapiens, UniProt Q14145); assay: disruptors of Keap1 binding to Nrf2 peptide – biochemical, fluorescence polarization, cherry-picked samples, dose response (AID 588683)
[3] = test system: Streptococcus; assay: GAS UMAA2166 growth inhibition – luminescence, BacTiterGlo, counter-screen for streptokinase expression inhibitor project, dose response (AID 1915); format: functional, organism-based;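 also: potency for reduction of bacterial viability or growth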
[4] = target: T1, Zinc finger protein mex-5 (Caenorhabditis elegans, UniProt Q9XUB2); assay: potency of MEX-5 RNA-binding blockers – biochemical, C. elegans, fluorescence polarization, dose response (AID 1960)
T1 sequence (Q9XUB2 whole entry): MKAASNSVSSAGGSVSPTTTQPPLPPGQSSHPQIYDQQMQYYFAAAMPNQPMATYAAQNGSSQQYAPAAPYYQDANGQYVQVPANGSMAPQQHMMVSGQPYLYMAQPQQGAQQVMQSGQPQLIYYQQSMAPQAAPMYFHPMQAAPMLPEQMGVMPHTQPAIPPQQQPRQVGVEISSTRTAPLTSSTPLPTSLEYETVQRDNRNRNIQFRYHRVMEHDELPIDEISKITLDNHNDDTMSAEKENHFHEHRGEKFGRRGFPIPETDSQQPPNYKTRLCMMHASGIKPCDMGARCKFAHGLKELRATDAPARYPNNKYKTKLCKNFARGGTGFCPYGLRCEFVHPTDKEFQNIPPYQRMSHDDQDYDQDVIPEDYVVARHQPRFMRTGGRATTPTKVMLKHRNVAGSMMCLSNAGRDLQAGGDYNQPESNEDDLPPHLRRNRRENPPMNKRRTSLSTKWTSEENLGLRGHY

[5] = target: T2, RNA-binding protein pos-1 (Caenorhabditis elegans, UniProt G5EF15); assay: disruptors of C. elegans POS-1 RNA interaction – biochemical, fluorescence polarization, dose response (AID 1964);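 also: purified POS-1 fused to maltose binding protein made in E. coli; potency of compounds blocking POS-1 binding to fluorescent RNA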
T2 sequence (G5EF15 whole entry): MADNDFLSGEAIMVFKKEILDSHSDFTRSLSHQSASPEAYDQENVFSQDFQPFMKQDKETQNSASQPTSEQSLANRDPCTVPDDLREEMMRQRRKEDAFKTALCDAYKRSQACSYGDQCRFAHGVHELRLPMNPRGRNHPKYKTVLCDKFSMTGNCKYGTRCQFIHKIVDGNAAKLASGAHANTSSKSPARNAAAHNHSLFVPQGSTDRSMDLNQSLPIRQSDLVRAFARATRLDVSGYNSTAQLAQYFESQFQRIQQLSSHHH

[6] = target: T3, Streptokinase A (Streptococcus pyogenes serotype M1, UniProt P10520); assay: viability-normalized secreted streptokinase activity reduction – plasminogen activation absorbance, OD405, dose response (AID 1914); format: functional, Streptococcus pyogenes M1 GAS;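 also: secreted streptokinase activity via plasminogen activation per viability signal from cell pellet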
T3 sequence (P10520 whole entry): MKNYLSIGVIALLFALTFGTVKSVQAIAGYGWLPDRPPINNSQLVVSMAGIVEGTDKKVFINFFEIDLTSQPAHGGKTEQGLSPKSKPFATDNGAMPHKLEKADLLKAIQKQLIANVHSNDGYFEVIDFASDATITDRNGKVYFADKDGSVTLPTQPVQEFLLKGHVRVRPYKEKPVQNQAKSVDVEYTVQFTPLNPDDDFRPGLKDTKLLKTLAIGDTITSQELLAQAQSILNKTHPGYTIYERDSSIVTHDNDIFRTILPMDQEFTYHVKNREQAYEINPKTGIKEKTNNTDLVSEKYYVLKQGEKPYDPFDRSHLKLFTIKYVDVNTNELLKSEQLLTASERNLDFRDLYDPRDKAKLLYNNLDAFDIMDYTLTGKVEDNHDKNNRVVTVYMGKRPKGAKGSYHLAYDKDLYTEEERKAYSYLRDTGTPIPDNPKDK

[7] = test system: Streptococcus sp. 'group A'; assay: Streptococcus pyogenes SK(-)GAS viability under kanamycin – luminescence, BacTiterGlo, confirmation, counter-screen for streptokinase expression inhibitor project, dose response (AID 1900); format: functional, organism-based
[8] = target: Neurotensin receptor type 1 (Homo sapiens, UniProt P30989); format: functional;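 also: Image-based confirmatory dose-response assay measuring agonist activity at NTR1; NTR1-expressing U2OS osteosarcoma cells imaged for beta-arrestin GFP spot formation; agonist potency where compounds increase beta-arrestin recruitment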
[9] = target: Peroxisome proliferator-activated receptor gamma/Nuclear receptor coactivator 2 (Homo sapiens, UniProt P37231); assay: (§1) TR-FRET dose response biochemical High Throughput Screening assay for agonists of the steroid receptor coactivator 2 (SRC-2) recruitment by the peroxisome proliferator-activated receptor gamma (PPAR gamma): non-selective agonists. [Related pubchem assays: 1297, 1032 ]; format: functional
[10] = target: Photoreceptor-specific nuclear receptor (Homo sapiens, UniProt Q9Y5X4); format: functional;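 also: potency for compounds that break the NR2E3 corepressor complex and count as activators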
[11] = target: Peroxisome proliferator-activated receptor gamma/Nuclear receptor coactivator 1 (Homo sapiens, UniProt P37231); assay: as §1, with “1 (SRC-1)” for “2 (SRC-2)”, “assays (depositor defined):AID1300, AID1808, AID504735, AID631]” for “assays: 1297, 1032 ]”; format: protein assay
[12] = target: Peroxisome proliferator-activated receptor gamma/Nuclear receptor coactivator 3 (Homo sapiens, UniProt P37231); assay: as §1, with “3 (SRC-3)” for “2 (SRC-2)”, “1301 (Confirmation screen.), 1048 (Primary screen.)]” for “1297, 1032 ]”; format: functional
[13] = target: Peroxisome proliferator-activated receptor gamma/Nuclear receptor corepressor 2 (Homo sapiens, UniProt P37231+Q9Y618); format: functional
[14] = target: E3 ubiquitin-protein ligase XIAP (Homo sapiens, UniProt P98170); assay: Counter Screen using XIAP-Bir3 for Chemical Antagonists of Bir1/2 domains of IAP-family anti-apoptotic proteins. [Related pubchem assays (depositor defined):AID1018, AID1449, AID1514, AID1638, AID1749, AID1750, AID488957, AID488963]
Chain of E3 ubiquitin-protein ligase XIAP (P98170 whole entry): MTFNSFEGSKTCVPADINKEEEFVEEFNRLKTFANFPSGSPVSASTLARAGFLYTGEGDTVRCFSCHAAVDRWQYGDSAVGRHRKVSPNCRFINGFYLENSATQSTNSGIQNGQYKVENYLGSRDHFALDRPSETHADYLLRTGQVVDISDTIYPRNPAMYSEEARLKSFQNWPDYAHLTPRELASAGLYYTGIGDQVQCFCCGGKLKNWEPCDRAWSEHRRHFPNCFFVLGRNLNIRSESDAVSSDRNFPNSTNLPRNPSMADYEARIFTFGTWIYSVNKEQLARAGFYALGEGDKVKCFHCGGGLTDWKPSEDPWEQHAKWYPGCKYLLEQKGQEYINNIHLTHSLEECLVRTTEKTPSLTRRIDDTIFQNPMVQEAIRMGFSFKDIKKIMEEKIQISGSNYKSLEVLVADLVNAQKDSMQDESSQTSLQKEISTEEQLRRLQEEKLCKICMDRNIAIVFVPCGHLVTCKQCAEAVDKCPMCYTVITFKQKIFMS

Chain of Cytochrome P450 2D6 (P10635 whole entry): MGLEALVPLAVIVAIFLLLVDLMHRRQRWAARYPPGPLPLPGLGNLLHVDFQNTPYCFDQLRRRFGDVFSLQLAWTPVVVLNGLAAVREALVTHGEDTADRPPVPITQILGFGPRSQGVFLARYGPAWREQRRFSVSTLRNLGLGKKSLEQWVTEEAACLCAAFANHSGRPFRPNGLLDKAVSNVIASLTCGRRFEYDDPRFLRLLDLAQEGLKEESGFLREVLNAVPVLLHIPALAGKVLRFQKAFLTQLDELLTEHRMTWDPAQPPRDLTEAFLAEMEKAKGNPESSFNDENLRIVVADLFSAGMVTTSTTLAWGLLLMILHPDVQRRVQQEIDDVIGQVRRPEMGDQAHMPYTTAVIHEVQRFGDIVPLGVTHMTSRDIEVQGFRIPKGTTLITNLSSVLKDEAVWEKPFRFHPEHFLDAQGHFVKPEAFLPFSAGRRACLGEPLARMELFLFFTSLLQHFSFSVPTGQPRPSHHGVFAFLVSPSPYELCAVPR
Chain of Neurotensin receptor type 1 (P30989 whole entry): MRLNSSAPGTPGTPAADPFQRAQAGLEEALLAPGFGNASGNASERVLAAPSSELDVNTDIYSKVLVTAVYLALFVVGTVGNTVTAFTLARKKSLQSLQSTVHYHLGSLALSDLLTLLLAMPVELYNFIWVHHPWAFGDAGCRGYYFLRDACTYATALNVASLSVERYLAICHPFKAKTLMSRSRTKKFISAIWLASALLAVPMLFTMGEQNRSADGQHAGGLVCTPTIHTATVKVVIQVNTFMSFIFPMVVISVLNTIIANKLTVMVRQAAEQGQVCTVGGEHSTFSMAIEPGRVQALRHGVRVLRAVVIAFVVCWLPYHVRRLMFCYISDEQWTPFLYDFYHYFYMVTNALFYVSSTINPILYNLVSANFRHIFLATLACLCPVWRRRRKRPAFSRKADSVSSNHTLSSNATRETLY
Chain of Peroxisome proliferator-activated receptor gamma/Nuclear receptor coactivator 3 (P37231 whole entry): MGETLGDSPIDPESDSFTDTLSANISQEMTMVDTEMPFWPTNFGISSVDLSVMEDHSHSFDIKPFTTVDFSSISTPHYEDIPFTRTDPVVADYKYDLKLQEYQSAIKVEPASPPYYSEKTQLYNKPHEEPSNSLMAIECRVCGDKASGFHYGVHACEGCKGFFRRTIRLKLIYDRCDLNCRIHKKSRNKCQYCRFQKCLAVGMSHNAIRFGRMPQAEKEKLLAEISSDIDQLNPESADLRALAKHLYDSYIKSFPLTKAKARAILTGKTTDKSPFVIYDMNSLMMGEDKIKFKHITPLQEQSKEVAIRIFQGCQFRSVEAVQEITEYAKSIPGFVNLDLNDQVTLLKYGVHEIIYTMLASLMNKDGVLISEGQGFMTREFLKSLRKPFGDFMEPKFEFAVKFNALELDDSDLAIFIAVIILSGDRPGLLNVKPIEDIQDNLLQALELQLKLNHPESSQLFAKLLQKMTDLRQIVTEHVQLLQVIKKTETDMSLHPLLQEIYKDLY
Chain of Peroxisome proliferator-activated receptor gamma/Nuclear receptor coactivator 3 (Q9Y6Q9 whole entry, further chain): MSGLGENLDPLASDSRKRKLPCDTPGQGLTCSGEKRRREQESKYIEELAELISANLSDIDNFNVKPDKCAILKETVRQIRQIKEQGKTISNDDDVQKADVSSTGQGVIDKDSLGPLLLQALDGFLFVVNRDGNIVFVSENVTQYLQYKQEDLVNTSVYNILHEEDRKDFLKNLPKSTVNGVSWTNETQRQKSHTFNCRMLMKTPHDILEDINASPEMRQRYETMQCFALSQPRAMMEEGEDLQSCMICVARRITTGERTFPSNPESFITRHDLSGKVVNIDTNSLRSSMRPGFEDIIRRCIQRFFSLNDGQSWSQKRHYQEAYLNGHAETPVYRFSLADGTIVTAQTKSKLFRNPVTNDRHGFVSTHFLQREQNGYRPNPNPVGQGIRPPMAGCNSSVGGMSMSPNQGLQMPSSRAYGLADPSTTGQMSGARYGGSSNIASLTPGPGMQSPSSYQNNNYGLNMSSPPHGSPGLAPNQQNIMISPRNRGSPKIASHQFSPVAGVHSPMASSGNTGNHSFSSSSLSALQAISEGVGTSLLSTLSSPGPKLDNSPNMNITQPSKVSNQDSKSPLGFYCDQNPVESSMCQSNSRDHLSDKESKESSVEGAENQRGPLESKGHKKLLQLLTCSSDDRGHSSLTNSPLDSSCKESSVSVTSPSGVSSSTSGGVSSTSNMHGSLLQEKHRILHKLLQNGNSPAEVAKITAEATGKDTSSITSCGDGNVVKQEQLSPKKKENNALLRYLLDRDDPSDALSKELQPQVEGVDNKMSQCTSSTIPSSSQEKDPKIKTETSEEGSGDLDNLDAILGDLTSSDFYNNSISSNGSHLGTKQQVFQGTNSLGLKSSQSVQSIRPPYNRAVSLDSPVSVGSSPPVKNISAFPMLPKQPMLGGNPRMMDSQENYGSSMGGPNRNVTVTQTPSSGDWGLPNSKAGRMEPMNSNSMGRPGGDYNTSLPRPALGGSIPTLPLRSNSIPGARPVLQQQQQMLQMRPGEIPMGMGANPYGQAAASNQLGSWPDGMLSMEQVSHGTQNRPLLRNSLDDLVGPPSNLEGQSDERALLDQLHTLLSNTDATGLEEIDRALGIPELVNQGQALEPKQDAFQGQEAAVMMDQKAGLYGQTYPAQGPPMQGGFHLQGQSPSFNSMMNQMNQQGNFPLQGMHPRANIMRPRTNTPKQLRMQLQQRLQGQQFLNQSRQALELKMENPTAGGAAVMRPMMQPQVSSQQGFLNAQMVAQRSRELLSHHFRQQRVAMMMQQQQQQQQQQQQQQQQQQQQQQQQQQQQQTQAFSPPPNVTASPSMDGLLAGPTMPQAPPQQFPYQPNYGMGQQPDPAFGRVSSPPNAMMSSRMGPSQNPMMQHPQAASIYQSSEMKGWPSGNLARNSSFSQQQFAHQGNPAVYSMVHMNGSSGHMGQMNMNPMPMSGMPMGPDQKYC
Chain of Keap1/Nrf2 (Q16236 whole entry): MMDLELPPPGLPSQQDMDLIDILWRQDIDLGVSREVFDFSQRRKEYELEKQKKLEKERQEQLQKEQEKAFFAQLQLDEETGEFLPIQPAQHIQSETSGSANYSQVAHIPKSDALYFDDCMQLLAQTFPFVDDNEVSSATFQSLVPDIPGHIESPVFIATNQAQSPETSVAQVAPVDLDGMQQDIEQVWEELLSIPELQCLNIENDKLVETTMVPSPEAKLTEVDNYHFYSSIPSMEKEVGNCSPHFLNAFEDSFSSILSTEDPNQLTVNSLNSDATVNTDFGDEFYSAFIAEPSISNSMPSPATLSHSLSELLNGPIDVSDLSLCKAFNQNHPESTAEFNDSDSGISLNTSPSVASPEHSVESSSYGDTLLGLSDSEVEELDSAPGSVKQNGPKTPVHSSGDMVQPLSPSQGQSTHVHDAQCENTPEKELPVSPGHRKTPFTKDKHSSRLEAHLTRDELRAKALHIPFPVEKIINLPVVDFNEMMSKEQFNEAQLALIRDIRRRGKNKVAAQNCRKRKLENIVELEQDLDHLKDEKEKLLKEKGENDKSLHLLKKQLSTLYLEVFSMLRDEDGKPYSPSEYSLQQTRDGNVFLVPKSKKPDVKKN
Chain of Keap1/Nrf2 (Q14145 whole entry): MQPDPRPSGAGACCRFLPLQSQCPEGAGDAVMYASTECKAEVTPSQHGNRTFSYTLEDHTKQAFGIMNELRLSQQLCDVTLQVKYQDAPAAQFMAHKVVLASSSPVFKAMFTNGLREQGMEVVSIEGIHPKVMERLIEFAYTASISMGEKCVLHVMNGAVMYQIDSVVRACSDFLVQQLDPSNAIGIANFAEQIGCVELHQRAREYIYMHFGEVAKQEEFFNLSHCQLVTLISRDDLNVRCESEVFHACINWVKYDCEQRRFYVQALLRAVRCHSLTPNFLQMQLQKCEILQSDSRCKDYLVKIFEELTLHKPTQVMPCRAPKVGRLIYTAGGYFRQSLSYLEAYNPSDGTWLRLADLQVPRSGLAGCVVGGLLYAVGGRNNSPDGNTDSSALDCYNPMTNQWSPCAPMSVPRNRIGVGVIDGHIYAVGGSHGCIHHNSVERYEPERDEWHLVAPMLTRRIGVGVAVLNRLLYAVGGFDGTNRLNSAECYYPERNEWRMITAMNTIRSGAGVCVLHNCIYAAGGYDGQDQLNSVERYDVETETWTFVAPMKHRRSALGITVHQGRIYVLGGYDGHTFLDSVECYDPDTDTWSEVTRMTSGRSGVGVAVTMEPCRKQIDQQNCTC
Chain of Photoreceptor-specific nuclear receptor (Q9Y5X4 whole entry): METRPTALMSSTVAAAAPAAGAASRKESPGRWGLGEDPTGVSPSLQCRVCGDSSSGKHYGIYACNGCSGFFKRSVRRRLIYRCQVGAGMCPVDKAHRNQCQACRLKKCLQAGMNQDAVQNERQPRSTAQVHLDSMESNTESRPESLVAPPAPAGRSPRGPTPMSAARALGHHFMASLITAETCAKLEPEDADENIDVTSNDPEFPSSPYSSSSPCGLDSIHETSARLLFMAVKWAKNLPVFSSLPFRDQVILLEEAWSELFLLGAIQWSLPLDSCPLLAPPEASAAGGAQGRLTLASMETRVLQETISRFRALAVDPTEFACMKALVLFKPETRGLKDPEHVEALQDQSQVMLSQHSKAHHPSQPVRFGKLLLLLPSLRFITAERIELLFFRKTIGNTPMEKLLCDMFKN

C[C@]12CC[C@H]3c4ccc(O)cc4CC[C@@H]3[C@H]1C/C(=N/O)[C@H]2O
AC50 [1]: inconclusive

Nc1ccc(S(=O)(=O)NCCS(=O)(=O)O)cc1
AC50 [1]: inconclusive

CN1CC=C2C(C#N)=C(N)C(C#N)(C#N)[C@H](c3cccs3)[C@H]2C1
AC50 [2]: > 52 µM (inactive)

COc1ccc(OC)c(N/C=C2/C(=O)NC(=S)N(Cc3ccccc3)C2=O)c1
EC50 [3]: > 150 µM (not active) | EC50 [4]: > 300 µM (inconclusive) | EC50 [5]: > 300 µM (not active) | EC50 [6]: > 150 µM (not active) | EC50 [7]: > 150 µM (not active) | EC50 [8]: 38.3 µM (inactive)

O=C(C1=C(O)C(=O)N(CCc2ccccc2)C1c1ccncc1)c1cc2ccccc2o1 (stereo not given)
EC50 [9]: 26.1 µM (not active) | IC50 [10]: > 39.8 µM (not active) | EC50 [11]: > 79.4 µM (inactive) | EC50 [12]: > 79.4 µM (not active) | IC50 [13]: 7.02 µM (active)

C=CCc1cccc2cc(C(=O)Nc3ccc(CC(=O)O)cc3)c(=O)oc12
IC50 [14]: > 20 µM (inactive)
